According to PubChem BioAssay (NCI):
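Cells were grown in 96-well plates and exposed to each compound for 48 hours at five concentrations; endpoints were interpolated linearly between bracketing concentrations, or set to the highest concentration if not reached. TGI: total growth inhibition.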

What was measured:
Experiment in all cases: NCI-60 cell line screen, 48 h
HCT-116 colon = test system: HCT-116 colon
SW-620 colon = test system: SW-620 colon
HCT-15 colon = test system: HCT-15 colon
K-562 leukemia = test system: K-562 leukemia
MCF7 breast = test system: MCF7 breast
CAKI-1 renal = test system: CAKI-1 renal
MDA-MB-435 = test system: MDA-MB-435
SF-539 CNS = test system: SF-539 CNS
TK-10 renal = test system: TK-10 renal
NCI-H460 lung = test system: NCI-H460 lung
DU-145 prostate = test system: DU-145 prostate
HCC-2998 colon = test system: HCC-2998 colon
PC-3 prostate = test system: PC-3 prostate
MDA-MB-231 breast = test system: MDA-MB-231 breast
CCRF-CEM leukemia = test system: CCRF-CEM leukemia
BT-549 breast = test system: BT-549 breast
OVCAR-4 ovarian = test system: OVCAR-4 ovarian

Structure (SMILES) | TGI (HCT-116 colon) [µM] | TGI (SW-620 colon) [µM] | TGI (HCT-15 colon) [µM] | TGI (K-562 leukemia) [µM] | TGI (MCF7 breast) [µM] | TGI (CAKI-1 renal) [µM] | TGI (MDA-MB-435) [µM] | TGI (SF-539 CNS) [µM] | TGI (TK-10 renal) [µM] | TGI (NCI-H460 lung) [µM] | TGI (DU-145 prostate) [µM] | TGI (HCC-2998 colon) [µM] | TGI (PC-3 prostate) [µM] | TGI (MDA-MB-231 breast) [µM] | TGI (CCRF-CEM leukemia) [µM] | TGI (BT-549 breast) [µM] | TGI (OVCAR-4 ovarian) [µM]
CC(=O)Nc1cc(Cl)cc(Cl)c1O | > 100 | > 100 | > 100 | > 100 | > 100 | > 100 | > 100 | > 100 | > 100 | > 100 | > 100 | > 100 | > 100 | > 100 | > 100 | > 100 | > 100
O=Cc1ccc2ccocc1-2 | > 100 | > 100 | > 100 | > 100 | > 100 | > 100 | > 100 | > 100 | > 100 | > 100 | > 100 | > 100 | > 100 | > 100 | > 100 | > 100 | > 100
COC(=O)[C@@H]1C[C@@H](O)CN1C(=O)c1ccc([N+](=O)[O-])cc1[N+](=O)[O-] | > 100 | > 100 | > 100 | > 100 | > 100 | > 100 | > 100 | > 100 | > 100 | > 100 | > 100 | > 100 | > 100 | > 100 | > 100 | > 100 | > 100
Cc1[nH]c(C)c(CN(C)C)c1CN(C)C | > 100 | > 100 | > 100 | > 100 | > 100 | > 100 | > 100 | > 100 | > 100 | > 100 | > 100 | > 100 | > 100 | > 100 | > 100 | > 100 | > 100
Cn1nnc2c(C(N)=S)ncn2c1=O | > 100 | > 100 | > 100 | > 100 | > 100 | > 100 | > 100 | > 100 | > 100 | > 100 | > 100 | > 100 | > 100 | > 100 | > 100 | > 100 | > 100
COC(=O)/C=C/CCC#Cc1ccccc1C#CCC/C=C/C(=O)OC | > 100 | > 100 | > 100 | 4.86 | > 100 | 10.1 | > 100 | 30.9 | > 100 | > 100 | > 100 | > 100 | > 100 | > 100 | 24.3 | > 100 | > 100
CCN(CC)C1Oc2cc3c(cc2C(c2cc(OC)c(O)c(OC)c2)C1C)OCO3 (configuration not stated) | 18.2 | 20.9 | > 38.6 | 17.4 | 27.3 | > 72.9 | 6.05 | 34.7 | 72.5 | 20.6 | > 89.3 | 21.4 | > 75.1 | 73.7 | 42.1 | > 100 | > 82.2
COC(=O)c1cc(CC2Cc3cc4c(cc3C2=O)CCC4)cc2c1CCC2 (configuration not stated) | > 100 | > 100 | > 100 | > 100 | > 100 | > 100 | > 100 | > 100 | > 100 | > 100 | > 100 | > 100 | > 100 | > 100 | > 100 | > 100 | > 100
C=C1N(S(=O)(=O)c2ccc(C)cc2)C(=O)OCC12CCCC2 | > 100 | > 100 | > 100 | > 100 | > 100 | > 100 | > 100 | > 100 | > 100 | > 100 | > 100 | > 100 | > 100 | > 100 | > 100 | > 100 | > 100
COc1ccc(N2C(=O)C(Cl)C2c2cc3cc(Br)ccc3nc2Cl)cc1 (configuration not stated) | 9.51 | 16.2 | 11 | > 25 | 13.5 | 18.9 | 10.7 | 10 | 15.5 | 12.2 | 21.2 | 7.52 | 21 | 9.1 | 14.7 | 9.11 | 9.68
C[N+](C)(C)CC(=O)N/N=C(\Cc1nc2ccc([N+](=O)[O-])cc2[nH]c1=O)C(=O)Nc1nc2ccc([N+](=O)[O-])cc2s1 | > 100 | > 100 | > 100 | > 100 | > 100 | 92 | > 100 | > 100 | > 100 | > 100 | > 100 | > 100 | > 100 | > 100 | > 100 | 94.3 | > 100
C=C(C)C1CC[C@@](C)(O)[C@H](C#N)C1 (some centres not stated) | > 100 | > 100 | > 100 | > 100 | > 100 | > 100 | > 100 | > 100 | > 100 | > 100 | > 100 | > 100 | > 100 | > 100 | > 100 | > 100 | > 100
CCOC(=O)c1ncn(CCc2ccc(Cl)cc2)c1C | > 100 | > 100 | > 100 | > 100 | > 100 | > 100 | > 100 | > 100 | > 100 | > 100 | > 100 | > 100 | > 100 | > 100 | > 100 | > 100 | > 100
CSC1=NN(C(C)=O)C(C(OC(C)=O)C(OC(C)=O)C(OC(C)=O)C(COC(C)=O)OC(C)=O)S1 (configuration not stated) | > 100 | > 100 | > 100 | > 100 | > 100 | > 100 | > 100 | > 100 | > 100 | > 100 | > 100 | > 100 | > 100 | > 100 | > 100 | > 100 | > 100
CSc1c(C#N)c(=O)n(N)c2c1c(C)nn2-c1ccccc1 | 56.2 | > 100 | 85.4 | 87 | 39.2 | 43 | > 100 | 55.5 | > 100 | > 100 | > 100 | > 100 | 76.7 | 57.9 | 76.3 | > 100 | 96.1
O=C(c1cscc1CCc1ccccc1)c1cscc1CCc1ccccc1 | > 100 | > 100 | > 100 | > 100 | > 100 | > 100 | > 100 | > 100 | > 100 | > 100 | > 100 | > 100 | > 100 | > 100 | > 100 | > 100 | > 100
